Series [1] is described as follows: Inhibition of recombinant human PKA expressed in Escherichia coli using LRRASLG as substrate preincubated for 15 mins followed by substrate addition measured after 15 mins in presence of [gamma-33P]-ATP by scintillation counting.
Series [2] deals with T1, hERG (KCNH2) (Homo sapiens, UniProt Q12809). Nature of the series: Displacement of [3H]Astemizole from human ERG expressed in HEK293 cell membranes at 1 uM after 60 mins. The note with it: membranes of HEK293 cells that express hERG, probe [3H]Astemizole. For orientation: In a radioligand displacement assay an active substance lowers the binding of a labelled ligand.
T1 sequence (Q12809 whole entry): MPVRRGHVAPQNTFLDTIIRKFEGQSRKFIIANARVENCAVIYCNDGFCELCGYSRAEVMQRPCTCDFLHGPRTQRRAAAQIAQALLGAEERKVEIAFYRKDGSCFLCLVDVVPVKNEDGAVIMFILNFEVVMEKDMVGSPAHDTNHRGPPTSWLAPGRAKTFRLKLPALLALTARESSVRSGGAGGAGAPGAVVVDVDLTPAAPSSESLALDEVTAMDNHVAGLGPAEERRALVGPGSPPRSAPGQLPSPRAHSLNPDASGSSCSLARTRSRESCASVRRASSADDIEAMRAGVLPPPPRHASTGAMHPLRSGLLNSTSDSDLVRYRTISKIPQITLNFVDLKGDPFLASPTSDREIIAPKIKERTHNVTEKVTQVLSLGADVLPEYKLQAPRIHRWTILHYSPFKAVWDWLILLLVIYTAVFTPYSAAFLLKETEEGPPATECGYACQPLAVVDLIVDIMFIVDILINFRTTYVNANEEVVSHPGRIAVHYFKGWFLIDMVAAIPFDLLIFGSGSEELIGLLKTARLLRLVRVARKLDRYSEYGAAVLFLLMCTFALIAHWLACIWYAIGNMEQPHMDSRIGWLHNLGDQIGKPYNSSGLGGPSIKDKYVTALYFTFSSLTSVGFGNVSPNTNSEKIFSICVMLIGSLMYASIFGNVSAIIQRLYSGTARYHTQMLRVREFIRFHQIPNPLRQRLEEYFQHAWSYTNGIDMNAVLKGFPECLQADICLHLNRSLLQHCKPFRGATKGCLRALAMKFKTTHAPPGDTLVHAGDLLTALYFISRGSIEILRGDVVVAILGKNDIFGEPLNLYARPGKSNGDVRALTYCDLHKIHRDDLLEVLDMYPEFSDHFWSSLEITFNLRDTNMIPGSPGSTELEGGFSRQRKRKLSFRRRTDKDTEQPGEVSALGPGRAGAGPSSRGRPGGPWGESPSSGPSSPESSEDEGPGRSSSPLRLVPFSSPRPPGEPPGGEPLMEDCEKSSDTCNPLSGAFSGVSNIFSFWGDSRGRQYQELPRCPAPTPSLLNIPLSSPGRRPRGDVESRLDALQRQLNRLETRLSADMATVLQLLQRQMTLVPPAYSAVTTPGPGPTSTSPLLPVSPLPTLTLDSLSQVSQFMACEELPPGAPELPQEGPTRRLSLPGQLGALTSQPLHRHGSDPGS
The target of series [3] is T2, G protein-coupled receptor kinase 3 (Homo sapiens, UniProt P35626).
T2 sequence (P35626 whole entry): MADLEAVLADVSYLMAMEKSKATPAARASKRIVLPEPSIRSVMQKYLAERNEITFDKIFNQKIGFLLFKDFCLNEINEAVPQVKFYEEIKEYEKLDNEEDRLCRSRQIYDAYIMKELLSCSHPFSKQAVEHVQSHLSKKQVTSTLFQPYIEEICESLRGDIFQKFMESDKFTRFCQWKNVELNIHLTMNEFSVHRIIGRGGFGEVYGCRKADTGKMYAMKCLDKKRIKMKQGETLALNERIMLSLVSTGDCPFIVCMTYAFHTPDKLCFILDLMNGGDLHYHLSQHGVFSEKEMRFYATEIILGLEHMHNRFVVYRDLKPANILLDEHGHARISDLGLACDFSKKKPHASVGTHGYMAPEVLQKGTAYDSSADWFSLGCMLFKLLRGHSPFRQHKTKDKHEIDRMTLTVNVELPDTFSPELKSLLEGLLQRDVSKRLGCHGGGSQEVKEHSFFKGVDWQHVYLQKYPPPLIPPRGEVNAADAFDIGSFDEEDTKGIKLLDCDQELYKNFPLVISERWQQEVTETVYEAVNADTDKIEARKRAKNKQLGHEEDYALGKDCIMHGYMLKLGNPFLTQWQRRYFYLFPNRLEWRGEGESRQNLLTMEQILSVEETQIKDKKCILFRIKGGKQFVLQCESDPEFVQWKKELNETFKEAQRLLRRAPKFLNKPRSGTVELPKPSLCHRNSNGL
The series is described as follows: Inhibition of recombinant human full length GST-tagged GRK3 expressed in baculovirus using ulight topo2alpha as substrate preincubated for 60 mins followed by substrate addition measured after 10 mins by Lance TR-FRET assay.

Series [4] deals with G protein-coupled receptor kinase 5 (Homo sapiens, UniProt P34947).
Sequence of G protein-coupled receptor kinase 5 (P34947 whole entry): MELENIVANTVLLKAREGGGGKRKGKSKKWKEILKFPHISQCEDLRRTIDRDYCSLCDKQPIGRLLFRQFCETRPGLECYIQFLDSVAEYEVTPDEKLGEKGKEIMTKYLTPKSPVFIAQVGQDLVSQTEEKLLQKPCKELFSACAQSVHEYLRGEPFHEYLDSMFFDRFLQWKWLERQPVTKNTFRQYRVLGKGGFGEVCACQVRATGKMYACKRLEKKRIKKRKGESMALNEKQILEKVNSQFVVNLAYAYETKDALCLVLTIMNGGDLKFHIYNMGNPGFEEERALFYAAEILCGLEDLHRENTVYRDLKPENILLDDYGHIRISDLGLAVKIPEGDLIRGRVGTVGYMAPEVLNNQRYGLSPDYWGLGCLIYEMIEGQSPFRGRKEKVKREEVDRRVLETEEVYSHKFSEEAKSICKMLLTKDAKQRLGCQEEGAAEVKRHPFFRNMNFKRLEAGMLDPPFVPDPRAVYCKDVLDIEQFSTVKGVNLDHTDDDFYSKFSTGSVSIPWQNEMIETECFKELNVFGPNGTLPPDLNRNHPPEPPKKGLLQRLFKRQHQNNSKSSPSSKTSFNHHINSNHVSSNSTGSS
Description: Inhibition of recombinant human full length GST-tagged GRK5 expressed in baculovirus using ulight topo2alpha as substrate preincubated for 60 mins followed by substrate addition measured after 10 mins by Lance TR-FRET assay
In series [5] the target is Protein kinase C alpha type (Homo sapiens, UniProt P17252). Nature of the series: Inhibition of human PKCalpha active using MBP as substrate after 60 mins in presence of [gamma-32]ATP by scintillation counting.
The target in series [6] is T1, hERG (KCNH2). The series is described as follows: Displacement of [3H]Astemizole from human ERG expressed in HEK293 cell membranes at 10 uM after 60 mins. Particulars: membranes of HEK293 cells that express hERG, probe [3H]Astemizole.
Series [7] concerns the target G protein-coupled receptor kinase 6 (Homo sapiens, UniProt P43250). The series is described as follows: Inhibition of recombinant human full length GST-tagged GRK6 expressed in baculovirus using ulight topo2alpha as substrate preincubated for 60 mins followed by substrate addition measured after 10 mins by Lance TR-FRET assay. Background: Time-resolved FRET reads energy transfer from a long-lived donor to a nearby acceptor.

Another series has as its target CYP3A4 (Homo sapiens, UniProt P08684). Nature of the series: Inhibition of CYP3A4 (unknown origin) at 10 uM. The class given is ADME.
In series [8] the target is Rho-associated protein kinase 2 (Homo sapiens, UniProt O75116). The series is described as follows: Inhibition of recombinant human N-terminal GST-tagged ROCK2 catalytic domain (1 to 553 residues) expressed in baculovirus expression system using STK 2-biotin as substrate measured after 60 mins by HTRF/TR-FRET assay.
Sequence of Rho-associated protein kinase 2 (O75116 whole entry, the tested form may be a part): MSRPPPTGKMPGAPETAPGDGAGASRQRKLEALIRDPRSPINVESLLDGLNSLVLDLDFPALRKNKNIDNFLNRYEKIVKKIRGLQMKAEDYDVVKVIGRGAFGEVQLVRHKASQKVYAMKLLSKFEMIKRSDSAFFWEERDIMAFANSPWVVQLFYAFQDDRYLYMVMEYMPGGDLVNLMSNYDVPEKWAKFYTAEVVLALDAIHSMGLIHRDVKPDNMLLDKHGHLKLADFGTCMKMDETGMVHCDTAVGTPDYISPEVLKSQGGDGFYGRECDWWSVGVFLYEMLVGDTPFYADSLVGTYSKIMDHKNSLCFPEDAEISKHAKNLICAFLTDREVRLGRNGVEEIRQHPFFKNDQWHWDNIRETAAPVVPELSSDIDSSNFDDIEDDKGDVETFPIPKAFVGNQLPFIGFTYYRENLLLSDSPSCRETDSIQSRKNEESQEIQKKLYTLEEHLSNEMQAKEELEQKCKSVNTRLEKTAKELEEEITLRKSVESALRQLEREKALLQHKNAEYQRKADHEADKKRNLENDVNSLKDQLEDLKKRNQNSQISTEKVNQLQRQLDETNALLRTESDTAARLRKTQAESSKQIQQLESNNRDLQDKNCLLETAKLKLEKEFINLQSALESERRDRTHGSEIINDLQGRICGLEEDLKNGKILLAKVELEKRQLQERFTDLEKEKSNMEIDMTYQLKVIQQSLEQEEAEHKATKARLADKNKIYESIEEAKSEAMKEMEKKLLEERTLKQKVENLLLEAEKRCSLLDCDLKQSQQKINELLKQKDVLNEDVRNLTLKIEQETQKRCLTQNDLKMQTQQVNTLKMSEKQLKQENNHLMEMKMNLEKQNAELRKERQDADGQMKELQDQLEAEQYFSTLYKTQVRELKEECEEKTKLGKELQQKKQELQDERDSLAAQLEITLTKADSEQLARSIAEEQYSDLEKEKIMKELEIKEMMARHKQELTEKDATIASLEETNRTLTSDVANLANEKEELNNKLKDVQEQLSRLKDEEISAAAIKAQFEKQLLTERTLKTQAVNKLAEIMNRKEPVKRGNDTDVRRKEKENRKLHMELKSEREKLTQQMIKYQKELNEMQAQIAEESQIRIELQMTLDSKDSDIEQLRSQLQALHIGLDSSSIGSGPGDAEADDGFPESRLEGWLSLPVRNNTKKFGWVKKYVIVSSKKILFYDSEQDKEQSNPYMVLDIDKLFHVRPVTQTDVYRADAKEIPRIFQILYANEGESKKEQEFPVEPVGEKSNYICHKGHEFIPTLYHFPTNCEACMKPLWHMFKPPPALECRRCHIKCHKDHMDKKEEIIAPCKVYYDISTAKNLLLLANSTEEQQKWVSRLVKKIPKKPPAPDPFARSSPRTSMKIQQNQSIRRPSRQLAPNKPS
The target in a further series is T3, Rhodopsin kinase GRK1 (Homo sapiens, UniProt Q15835).
T3 sequence (Q15835 whole entry): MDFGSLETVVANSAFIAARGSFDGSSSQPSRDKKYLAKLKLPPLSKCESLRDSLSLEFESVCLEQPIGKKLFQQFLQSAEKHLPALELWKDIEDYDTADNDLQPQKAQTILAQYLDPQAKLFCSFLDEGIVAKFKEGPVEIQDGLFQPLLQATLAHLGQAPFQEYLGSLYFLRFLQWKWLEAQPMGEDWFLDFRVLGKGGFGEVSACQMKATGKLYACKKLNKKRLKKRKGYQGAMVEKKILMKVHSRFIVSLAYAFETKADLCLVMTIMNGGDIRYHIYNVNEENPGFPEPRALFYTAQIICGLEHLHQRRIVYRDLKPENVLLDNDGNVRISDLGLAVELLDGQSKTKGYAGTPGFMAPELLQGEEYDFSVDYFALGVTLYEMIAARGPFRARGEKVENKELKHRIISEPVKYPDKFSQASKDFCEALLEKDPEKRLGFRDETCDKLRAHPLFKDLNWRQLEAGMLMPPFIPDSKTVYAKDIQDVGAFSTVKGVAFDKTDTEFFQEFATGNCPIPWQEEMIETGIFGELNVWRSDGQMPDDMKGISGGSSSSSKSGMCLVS
The series is described as follows: Inhibition of recombinant human GST-tagged GRK1 expressed in baculovirus infected fall armyworm Sf9 cells after 60 mins by LanthaScreen eu kinase binding assay.

Another series deals with T4, Rhodopsin kinase GRK7 (Homo sapiens, UniProt Q8WTQ7).
T4 sequence (Q8WTQ7 whole entry): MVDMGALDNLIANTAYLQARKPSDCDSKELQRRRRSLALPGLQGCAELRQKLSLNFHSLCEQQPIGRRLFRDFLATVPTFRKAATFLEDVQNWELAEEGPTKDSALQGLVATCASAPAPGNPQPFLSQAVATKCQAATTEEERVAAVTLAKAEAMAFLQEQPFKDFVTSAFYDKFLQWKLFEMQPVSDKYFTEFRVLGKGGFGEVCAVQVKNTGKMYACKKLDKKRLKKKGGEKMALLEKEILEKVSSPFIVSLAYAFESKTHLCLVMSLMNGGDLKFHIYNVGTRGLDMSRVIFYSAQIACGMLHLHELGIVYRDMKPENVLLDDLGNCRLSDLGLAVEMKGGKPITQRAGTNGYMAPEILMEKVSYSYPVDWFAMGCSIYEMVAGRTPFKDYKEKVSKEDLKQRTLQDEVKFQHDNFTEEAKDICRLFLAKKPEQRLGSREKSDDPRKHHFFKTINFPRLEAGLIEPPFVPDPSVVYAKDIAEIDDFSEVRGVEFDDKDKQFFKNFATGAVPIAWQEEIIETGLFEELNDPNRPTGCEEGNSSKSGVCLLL
Nature of the series: Inhibition of recombinant human full length GST-tagged GRK7 expressed in baculovirus using ulight topo2alpha as substrate preincubated for 60 mins followed by substrate addition measured after 10 mins by Lance TR-FRET assay.

For series [9], the target named is T5, Beta-adrenergic receptor kinase 1 (Homo sapiens, UniProt P25098).
T5 sequence (P25098 whole entry): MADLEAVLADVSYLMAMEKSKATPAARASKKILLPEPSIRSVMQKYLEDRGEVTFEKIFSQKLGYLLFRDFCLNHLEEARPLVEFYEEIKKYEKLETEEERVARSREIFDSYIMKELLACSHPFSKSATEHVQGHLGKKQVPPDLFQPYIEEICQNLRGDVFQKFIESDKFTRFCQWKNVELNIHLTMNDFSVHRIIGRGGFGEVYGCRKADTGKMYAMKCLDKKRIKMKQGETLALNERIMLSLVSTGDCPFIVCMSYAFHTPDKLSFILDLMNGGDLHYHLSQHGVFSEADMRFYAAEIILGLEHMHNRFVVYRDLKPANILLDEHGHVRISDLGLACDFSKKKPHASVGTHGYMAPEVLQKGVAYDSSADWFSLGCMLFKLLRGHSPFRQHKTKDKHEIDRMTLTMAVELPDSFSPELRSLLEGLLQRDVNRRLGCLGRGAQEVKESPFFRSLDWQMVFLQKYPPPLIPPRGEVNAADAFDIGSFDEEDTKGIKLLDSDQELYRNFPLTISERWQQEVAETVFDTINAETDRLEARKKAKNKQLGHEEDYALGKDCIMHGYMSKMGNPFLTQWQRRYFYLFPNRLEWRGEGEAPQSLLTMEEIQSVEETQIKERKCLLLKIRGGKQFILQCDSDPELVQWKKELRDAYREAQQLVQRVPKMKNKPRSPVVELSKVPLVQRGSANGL
Nature of the series: Inhibition of human GRK2 expressed in HEK-B2 cells assessed as isoproterenol-stimulated cAMP accumulation preincubation for 20 mins followed by isoproterenol stimulation measured after 20 mins by cAMP ALPHA-screen assay. The class given is cell-based. For orientation: cAMP levels reflect the balance of adenylyl cyclase and phosphodiesterase activity.

A value given as a limit tells only on which side of the number the result lay.

Drawing on ChEMBL document CHEMBL4038320 (J Med Chem, 2017), this text covers IC50, inhibition and EC50 for five molecules.

Sequence of CYP3A4 (P08684 whole entry, the tested form may be a part): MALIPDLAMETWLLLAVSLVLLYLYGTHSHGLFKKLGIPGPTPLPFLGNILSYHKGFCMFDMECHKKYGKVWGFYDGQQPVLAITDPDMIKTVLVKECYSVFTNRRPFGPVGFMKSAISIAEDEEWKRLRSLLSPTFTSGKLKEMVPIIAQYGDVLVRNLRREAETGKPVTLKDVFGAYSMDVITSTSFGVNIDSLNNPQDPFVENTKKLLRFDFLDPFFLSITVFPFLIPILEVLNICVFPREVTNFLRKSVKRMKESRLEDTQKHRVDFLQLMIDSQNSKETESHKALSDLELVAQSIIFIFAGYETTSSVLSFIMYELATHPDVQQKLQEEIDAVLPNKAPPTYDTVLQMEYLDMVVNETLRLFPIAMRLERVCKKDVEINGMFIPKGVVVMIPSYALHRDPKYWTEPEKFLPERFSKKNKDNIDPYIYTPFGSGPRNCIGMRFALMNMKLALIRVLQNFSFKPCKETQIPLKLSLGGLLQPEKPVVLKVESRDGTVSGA
Sequence of G protein-coupled receptor kinase 6 (P43250 whole entry): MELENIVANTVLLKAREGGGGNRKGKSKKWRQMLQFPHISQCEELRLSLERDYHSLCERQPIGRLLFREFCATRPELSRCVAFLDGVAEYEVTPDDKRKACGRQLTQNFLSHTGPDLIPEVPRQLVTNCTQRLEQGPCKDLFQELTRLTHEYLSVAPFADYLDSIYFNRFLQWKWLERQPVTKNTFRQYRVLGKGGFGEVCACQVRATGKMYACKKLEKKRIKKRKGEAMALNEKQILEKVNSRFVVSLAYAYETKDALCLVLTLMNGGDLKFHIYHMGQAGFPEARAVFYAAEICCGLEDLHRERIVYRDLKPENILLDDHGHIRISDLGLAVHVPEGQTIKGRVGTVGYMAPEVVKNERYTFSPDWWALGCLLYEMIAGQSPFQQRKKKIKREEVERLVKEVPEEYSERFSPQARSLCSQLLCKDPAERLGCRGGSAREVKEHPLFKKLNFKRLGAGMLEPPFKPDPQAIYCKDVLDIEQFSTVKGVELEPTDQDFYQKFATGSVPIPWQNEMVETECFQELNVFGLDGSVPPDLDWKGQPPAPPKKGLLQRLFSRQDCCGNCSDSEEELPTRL

As usually defined, the IC50 is the concentration needed to halve the response being measured. By inhibition is commonly meant how much of the control response was suppressed. Read a low inhibition as a weak effect. On to `Cn1c(CNc2cccc(C(=O)NCc3ccccc3C(F)(F)F)c2)nnc1-c1ccncc1`, for which the IC50 in series [1] was over 1 µM; in [3] it was 0.0054 µM; in series [4], 2.3 µM; in series [5], 8.1 µM; in series [7], over 30 µM; in series [8] it was 1.4 µM. The IC50 at Rhodopsin kinase GRK1 was 3.1 µM; at Rhodopsin kinase GRK7, 25 µM. Further, the inhibition at 1 h, 1 µM at hERG (KCNH2) [2] stood at 9%. Besides, the inhibition at 1 h, 10 µM at hERG (KCNH2) [6] came to 31%. The molecule also gave an inhibition at 10 µM at CYP3A4 of 44%.
What is called EC50 is the concentration that produces a half-maximal response. Turning to `Cn1c(CNc2cccc(C(=O)NCc3ccc(C(F)(F)F)cc3)c2)nnc1-c1ccncc1`, the figures for the IC50 in [5] and in series [8] were over 10 µM and 0.62 µM, respectively. Moreover, at 10 µM the inhibition against CYP3A4 was 36%. The EC50 in [9] is 930 µM.
For `CCCn1c(CNc2cccc(C(=O)NCc3ccccc3)c2)nnc1-c1ccncc1`, in that order: 5.7 µM, 0.11 µM, 67% and 26 µM.
For `Cn1c(CNc2cccc(C(=O)NCc3ccccc3)c2)nnc1-c1ccncc1`, in that order: over 10 µM, 0.55 µM, 26% and 1900 µM.
For `Cn1c(CNc2cccc(C(=O)NCc3cccc(C(F)(F)F)c3)c2)nnc1-c1ccncc1`, in that order: over 10 µM, 0.53 µM, 44% and 220 µM.
